Assay results from US8580852B2, “2-oxamide inhibitors of phospholipase A2 activity and cellular arachidonate release based on dipeptides and pseudopeptides” (The Regents of the University of California, priority 2009, dated 2013).
Values joined by “and” are separate entries in the source; they are usually repeats but may differ in a detail not shown here. Equal entries are not always repeated.

Biological target: T1, GVIA iPLA2 (Homo sapiens, UniProt O60733)
T1 sequence (O60733 1-806): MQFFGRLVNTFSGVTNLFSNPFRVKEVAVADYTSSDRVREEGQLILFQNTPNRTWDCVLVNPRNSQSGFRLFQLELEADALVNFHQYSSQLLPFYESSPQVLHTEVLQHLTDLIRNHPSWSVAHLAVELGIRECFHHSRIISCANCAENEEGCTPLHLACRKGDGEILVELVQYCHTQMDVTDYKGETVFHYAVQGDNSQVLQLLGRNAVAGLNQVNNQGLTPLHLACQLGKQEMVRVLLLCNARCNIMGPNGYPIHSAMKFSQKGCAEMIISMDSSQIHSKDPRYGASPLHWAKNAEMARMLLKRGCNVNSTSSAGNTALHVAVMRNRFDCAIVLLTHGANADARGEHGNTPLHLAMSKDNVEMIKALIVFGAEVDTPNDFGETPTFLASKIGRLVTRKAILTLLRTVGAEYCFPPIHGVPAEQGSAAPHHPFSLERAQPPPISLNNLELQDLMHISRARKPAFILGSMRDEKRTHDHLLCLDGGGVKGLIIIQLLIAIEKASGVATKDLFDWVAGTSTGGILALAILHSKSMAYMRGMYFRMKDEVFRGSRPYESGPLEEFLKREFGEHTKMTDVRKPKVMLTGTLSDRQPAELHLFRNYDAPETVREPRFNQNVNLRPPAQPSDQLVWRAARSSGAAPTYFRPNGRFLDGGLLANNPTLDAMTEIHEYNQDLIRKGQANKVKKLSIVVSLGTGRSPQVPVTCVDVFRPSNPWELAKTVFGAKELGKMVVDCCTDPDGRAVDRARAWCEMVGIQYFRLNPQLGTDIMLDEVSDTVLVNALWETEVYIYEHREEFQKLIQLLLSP
Experiment: In vitro PLA2 mixed micellar assay (modified Dole assay), GVIA iPLA2
Type: biochemical
Conditions: at 0.091 mole fraction of inhibitor, n = 3
Experimental: FIG. 3 illustrates the dose-response curves for 2-oxoamide inhibitors of GVIA iPLA2. Inhibition of the activity of human GVIA iPLA2 by inhibitors (a) 8a and (b) 13 was tested on mixed-micelles containing 100 μM PAPC and 400 μM Triton X-100. Inhibition curves were generated by Graphpad Prism using a non-linear regression (one-site binding model—hyperbola) to calculate the reported XI(50) values.
All the inhibitors synthesized in this work were tested for inhibition of GIVA cPLA2, GVIA iPLA2 and GV sPLA2 using mixed micellar assays. Details for the assays have been published previously. The results of the inhibition are presented in Table 1 using either percent inhibition or XI(50) values. Initially, the percent inhibition of each PLA2 at 0.091 mole fraction of inhibitor was determined. XI(50) values were estimated when the percent inhibition was higher than 90%. The XI(50) is the mole fraction of the inhibitor in the total substrate interface required to inhibit the enzyme by 50%. Data for the reference 2-oxoamide inhibitors AX006 and AX048 are included in Table 1 for comparison.
Phospholipase A2 activity was determined using the previously described modified Dole assay with buffer and substrate conditions optimized for each enzyme as described previously: (i) GIVA cPLA2 substrate mixed-micelles were composed of 400 μM Triton X-100, 97 μM PAPC, 1.8 μM ^14C-labeled PAPC, and 3 μM PIP2 in buffer containing 100 mM HEPES pH 7.5, 90 μM CaCl2, 2 mM DTT and 0.1 mg/ml BSA; (ii) GVI iPLA2 substrate mixed-micelles were composed of either (a) 400 μM Triton X-100, 99 μM DPPC, and 1.5 μM ^14C-labeled DPPC in buffer containing 200 mM HEPES pH 7.0, 1 mM ATP, 2 mM DTT and 0.1 mg/ml BSA or (b) 400 μM Triton X-100, 98.3 μM PAPC, and 1.7 μM ^14C-labeled PAPC in buffer containing 100 mM HEPES pH 7.5, 2 mM ATP and 4 mM DTT; and (iii) GV sPLA2 substrate mixed-micelles were composed of 400 μM Triton X-100, 99 μM DPPC, and 1.5 μM ^14C-labeled DPPC in buffer containing 50 mM Tris pH 8.0 and 5 mM CaCl2.
Initial screening of compounds at 0.091 mole fraction inhibitor in mixed-micelles was carried out. Compounds displaying 25% or less inhibition had no inhibitory affect (designated N.D.). The average percent inhibition (and standard error, n=3) for compounds displaying more than 25% and less than 90% enzyme inhibition is reported herein. If the percent inhibition was greater than 90%, then its XI(50) was determined by plotting percent inhibition vs. inhibitor molar fraction (7 points; typically 0.005 to 0.091 mole fraction). Inhibition curves were modeled in Graphpad Prism using either a linear (x, y intercept=0) or non-linear regression (one-site binding model—hyperbola, BMAX=100) to calculate the reported XI(50) and associated error values.

Row | Structure (SMILES) | GVIA iPLA2 % inhibition
1 | CCCCCCCCCCCCCCC(=O)C(=O)N[C@H](C(=O)NCC(=O)OC)C(C)C [Compound 4b, (S)-Methyl-2-(3-methyl-2-(2-oxohexadecanamido)butanamido)-acetate] | N.D.^a (N.D. signifies compounds with less than 25% inhibition (or no detectable inhibition).)
2 | CCCCCCCCCCCCCCC(=O)C(=O)N[C@@H](CCCC)C(=O)NCC(=O)O [Compound 9a, (S)-2-(2-(2-Oxohexadecanamido)hexanamido)acetic Acid] | N.D.^a (N.D. signifies compounds with less than 25% inhibition (or no detectable inhibition).)
3 | CCCCCCCCCCCCCCC(=O)C(=O)N[C@H](C(=O)NCC(=O)O)C(C)C [Compound 9b, (S)-2-(3-Methyl-2-(2-oxohexadecanamido)butanamido)acetic Acid] | N.D.^a (N.D. signifies compounds with less than 25% inhibition (or no detectable inhibition).)
4 | CCCCCCCCCCCCCCC(=O)C(=O)N[C@@H](CCCC)COCC(=O)OC(C)(C)C [Compound 17, (S)-tert-Butyl 2-(2-(2-oxohexadecanamido)hexyloxy)acetate] | 81%
5 | CCCCCCCCCCCCCCC(=O)C(=O)N[C@@H](CCCC)COCC(=O)O [Compound 18, (S)-2-(2-(2-oxohexadecanainido)hexyloxy)acetic Acid] | N.D.^a (N.D. signifies compounds with less than 25% inhibition (or no detectable inhibition).)

Same assay, conditions: mixed micelles; mole fraction of inhibitor in total substrate interface required to inhibit the enzyme by 50%

Row | Structure (SMILES) | GVIA iPLA2 X1(50)
6 | CCCCCCCCCCCCCCC(=O)C(=O)N[C@@H](CCCC)C(=O)NCC(=O)OC [Compound 4a, (S)-Methyl 2-(2-(2-oxohexadecanamido)hexanamido)acetate] | 0.045 ± 0.018 mole fraction
7 | CCCCCCCCCCCCCCC(=O)C(=O)N[C@@H](CCCC)C(=O)NCC(=O)OCC [Compound 4c, (S)-Ethyl 2-(2-(2-oxohexadecanamido)hexanamido)acetate] | 0.020 mole fraction and 0.020 ± 0.002 mole fraction
8 | CCCCCCCCCCCCCCC(=O)C(=O)N[C@@H](CCCC)C(=O)NCC(=O)OC(C)(C)C [Compound 8a, (S)-tert-Butyl 2-(2-(2-oxohexadecanamido)hexanamido)acetate] | 0.011 mole fraction and 0.011 ± 0.001 mole fraction
9 | CCCCCCCCCCCCCCC(=O)C(=O)N[C@H](C(=O)NCC(=O)OC(C)(C)C)C(C)C [Compound 8b, (S)-tert-Butyl-2-(3-methyl-2-(2-oxohexadecanamido)butanamido)-acetate] | 0.044 ± 0.025 mole fraction
10 | CCCCCCCCCCCCCCC(=O)C(=O)N[C@@H](CCCC)COCC(=O)OCC [Compound 13, (S)-Ethyl 2-(2-(2-oxohexadecanamido)hexyloxy)acetate] | 0.017 mole fraction and 0.017 ± 0.002 mole fraction
